Reference: ChEMBL document CHEMBL3862012, “Methylene versus carbonyl bridge in the structure of new tubulin polymerization inhibitors with tricyclic A-rings” (Bioorg Med Chem, 2016)

How the values were obtained:
[1] = Cytotoxicity against human K562 cells assessed as growth inhibition at 10 uM after 48 hrs by SRB assay relative to control; assay type: functional; details: K562, 48 h, read-out: GI
[2] = Cytotoxicity against human SK-MEL-28 cells assessed as growth inhibition at 10 uM after 48 hrs by SRB assay relative to control; assay type: functional; details: SK-MEL-28, 48 h, read-out: GI
[3] = Cytotoxicity against human SK-MEL-5 cells assessed as growth inhibition at 10 uM after 48 hrs by SRB assay relative to control; assay type: functional; details: SK-MEL-5, 48 h, read-out: GI
[4] = Cytotoxicity against human SR cells assessed as growth inhibition after 48 hrs by SRB assay; assay type: functional
[5] = Cytotoxicity against human HCT15 cells assessed as growth inhibition after 48 hrs by SRB assay; assay type: functional; details: HCT-15, 48 h
[6] = Cytotoxicity against human KM12 cells assessed as growth inhibition after 48 hrs by SRB assay; assay type: functional; details: KM12, 48 h
[7] = Cytotoxicity against human M14 cells assessed as growth inhibition after 48 hrs by SRB assay; assay type: functional; details: M14, 48 h
[8] = Cytotoxicity against human SK-MEL-28 cells assessed as growth inhibition after 48 hrs by SRB assay; assay type: functional; details: SK-MEL-28, 48 h
[9] = Cytotoxicity against human MCF7 cells assessed as growth inhibition after 48 hrs by SRB assay; assay type: functional; details: MCF7, 48 h
[10] = Inhibition of sheep brain tubulin polymerization by DAPI staining-based fluorimetric method; set-up: species or system Ovis aries
[11] = Cytotoxicity against human HL-60(TB) cells assessed as growth inhibition after 48 hrs by SRB assay; assay type: functional; details: HL-60, 48 h
[12] = Cytotoxicity against human MOLT4 cells assessed as growth inhibition after 48 hrs by SRB assay; assay type: functional; details: MOLT-4, 48 h
[13] = Cytotoxicity against human EKVX cells assessed as growth inhibition after 48 hrs by SRB assay; assay type: functional
[14] = Cytotoxicity against human HOP62 cells assessed as growth inhibition after 48 hrs by SRB assay; assay type: functional; details: HOP-62, 48 h
[15] = Cytotoxicity against human HOP92 cells assessed as growth inhibition after 48 hrs by SRB assay; assay type: functional; details: HOP-92, 48 h
[16] = Cytotoxicity against human NCI-H460 cells assessed as growth inhibition after 48 hrs by SRB assay; assay type: functional; details: NCI-H460, 48 h
[17] = Cytotoxicity against human NCI-H522 cells assessed as growth inhibition after 48 hrs by SRB assay; assay type: functional; details: NCI-H522, 48 h
[18] = Cytotoxicity against human COLO205 cells assessed as growth inhibition after 48 hrs by SRB assay; assay type: functional; details: COLO 205, 48 h
[19] = Cytotoxicity against human U251 cells assessed as growth inhibition after 48 hrs by SRB assay; assay type: functional; details: U-251, 48 h
[20] = Cytotoxicity against human UACC62 cells assessed as growth inhibition after 48 hrs by SRB assay; assay type: functional; details: UACC-62, 48 h
[21] = Cytotoxicity against human LOXIMVI cells assessed as growth inhibition after 48 hrs by SRB assay; assay type: functional; details: LOX IMVI
[22] = Cytotoxicity against human SK-MEL-5 cells assessed as growth inhibition after 48 hrs by SRB assay; assay type: functional; details: SK-MEL-5, 48 h
[23] = Cytotoxicity against human OVCAR3 cells assessed as growth inhibition after 48 hrs by SRB assay; assay type: functional; details: OVCAR-3, 48 h
[24] = Cytotoxicity against human OVCAR4 cells assessed as growth inhibition after 48 hrs by SRB assay; assay type: functional; details: OVCAR-4, 48 h
[25] = Cytotoxicity against human A498 cells assessed as growth inhibition after 48 hrs by SRB assay; assay type: functional; details: A498, 48 h
[26] = Cytotoxicity against human Caki1 cells assessed as growth inhibition after 48 hrs by SRB assay; assay type: functional; details: CAKI-1, 48 h
[27] = Cytotoxicity against human RXF393 cells assessed as growth inhibition after 48 hrs by SRB assay; assay type: functional; details: RXF 393, 48 h
[28] = Cytotoxicity against human UO31 cells assessed as growth inhibition after 48 hrs by SRB assay; assay type: functional; details: UO-31, 48 h
[29] = Cytotoxicity against human 786-0 cells assessed as growth inhibition after 48 hrs by SRB assay; assay type: functional; details: 786-0, 48 h
[30] = Cytotoxicity against human DU145 cells assessed as growth inhibition after 48 hrs by SRB assay; assay type: functional; details: DU-145, 48 h
[31] = Cytotoxicity against human PC3 cells assessed as growth inhibition after 48 hrs by SRB assay; assay type: functional; details: PC-3, 48 h
[32] = Cytotoxicity against human Hs 578T cells assessed as growth inhibition after 48 hrs by SRB assay; assay type: functional
[33] = Cytotoxicity against human MDA-MB-468 cells assessed as growth inhibition after 48 hrs by SRB assay; assay type: functional; details: MDA-MB-468, 48 h
[34] = Cytotoxicity against human SK-MEL-2 cells assessed as growth inhibition after 48 hrs by SRB assay; assay type: functional; details: SK-MEL-2, 48 h
[35] = Cytotoxicity against human MALME-3M cells assessed as growth inhibition after 48 hrs by SRB assay; assay type: functional

Row | Structure (SMILES) | GI50 [4] [nM] | GI50 [5] [nM] | GI50 [7] [nM] | GI50 [9] [nM] | GI50 [11] [nM] | GI50 [12] [nM] | GI50 [13] [nM] | GI50 [14] [nM] | GI50 [15] [nM] | GI50 [16] [nM] | GI50 [17] [nM] | GI50 [18] [nM] | GI50 [19] [nM] | GI50 [20] [nM] | GI50 [21] [nM] | GI50 [22] [nM] | GI50 [23] [nM] | GI50 [24] [nM] | GI50 [25] [nM] | GI50 [26] [nM] | further results
1 | COc1ccc(CN2c3ccccc3Sc3ccccc32)c(F)c1 | 60 | 38 | 38 | 33 | – | – | – | – | – | – | – | – | – | – | – | – | – | – | – | – | inhibition of growth at 10 µM [1]: 91%; inhibition of growth at 10 µM [2]: 47%; inhibition of growth at 10 µM [3]: 74%; GI50 [6]: 43 nM; GI50 [8]: 5050 nM
2 | COc1ccc(CN2c3ccccc3CCc3ccccc32)cc1F | 463 | 428 | 354 | 352 | 241 | 554 | 1550 | 529 | 587 | 419 | 609 | 335 | 496 | 804 | 725 | 522 | 285 | 868 | 339 | 549 | IC50 [10]: 6400 nM; inhibition of growth at 10 µM [1]: 94%; inhibition of growth at 10 µM [2]: 49%; inhibition of growth at 10 µM [3]: 80%; GI50 [6]: 387 nM; GI50 [8]: 820 nM; GI50 [27]: 312 nM; GI50 [28]: 814 nM; GI50 [29]: 572 nM; GI50 [30]: 481 nM; GI50 [31]: 489 nM; GI50 [32]: 487 nM; GI50 [33]: 399 nM
3 | COc1ccc(CN2c3ccccc3Sc3ccccc32)cc1F | 354 | 437 | 317 | 365 | 262 | 468 | 612 | 506 | 806 | 389 | 300 | 299 | 529 | 499 | 722 | 488 | 264 | 7250 | 283 | 386 | IC50 [10]: 20700 nM; inhibition of growth at 10 µM [1]: 89%; inhibition of growth at 10 µM [2]: 43%; inhibition of growth at 10 µM [3]: 78%; GI50 [6]: 419 nM; GI50 [34]: 405 nM; GI50 [27]: 304 nM; GI50 [28]: 916 nM; GI50 [29]: 579 nM; GI50 [30]: 438 nM; GI50 [31]: 485 nM; GI50 [32]: 459 nM; GI50 [33]: 309 nM
4 | COc1ccc(CN2c3ccccc3Sc3ccccc32)cc1O | 407 | 369 | 383 | 355 | 257 | 642 | 378 | 384 | 502 | 444 | 241 | 789 | 427 | 682 | 710 | 438 | 304 | 726 | 2710 | 472 | IC50 [10]: 9200 nM; GI50 [34]: 333 nM; GI50 [8]: 14400 nM; GI50 [35]: 12200 nM; GI50 [27]: 338 nM; GI50 [28]: 752 nM; GI50 [29]: 838 nM; GI50 [30]: 374 nM; GI50 [31]: 503 nM; GI50 [32]: 933 nM; GI50 [33]: 531 nM
5 | COc1ccc(CN2c3ccccc3Sc3ccccc32)c(C(F)(F)F)c1 | 483 | 489 | 446 | 349 | 412 | 288 | 1200 | 604 | 227 | 456 | 314 | 640 | 431 | 917 | 832 | 500 | 513 | 2160 | 372 | 1530 | GI50 [34]: 1180 nM; GI50 [35]: 21000 nM; GI50 [27]: 380 nM; GI50 [28]: 3980 nM; GI50 [29]: 9050 nM; GI50 [30]: 2080 nM; GI50 [31]: 546 nM; GI50 [32]: 877 nM; GI50 [33]: 275 nM
